4 molecules from ChEMBL document CHEMBL1148793, “Influence of conformation on GRIND-based three-dimensional quantitative structure-activity relationship (3D-QSAR)” (J Med Chem, 2007) can be followed below.

The test addresses T1, Lanosterol synthase (Homo sapiens, UniProt P48449).
T1 sequence (P48449 whole entry): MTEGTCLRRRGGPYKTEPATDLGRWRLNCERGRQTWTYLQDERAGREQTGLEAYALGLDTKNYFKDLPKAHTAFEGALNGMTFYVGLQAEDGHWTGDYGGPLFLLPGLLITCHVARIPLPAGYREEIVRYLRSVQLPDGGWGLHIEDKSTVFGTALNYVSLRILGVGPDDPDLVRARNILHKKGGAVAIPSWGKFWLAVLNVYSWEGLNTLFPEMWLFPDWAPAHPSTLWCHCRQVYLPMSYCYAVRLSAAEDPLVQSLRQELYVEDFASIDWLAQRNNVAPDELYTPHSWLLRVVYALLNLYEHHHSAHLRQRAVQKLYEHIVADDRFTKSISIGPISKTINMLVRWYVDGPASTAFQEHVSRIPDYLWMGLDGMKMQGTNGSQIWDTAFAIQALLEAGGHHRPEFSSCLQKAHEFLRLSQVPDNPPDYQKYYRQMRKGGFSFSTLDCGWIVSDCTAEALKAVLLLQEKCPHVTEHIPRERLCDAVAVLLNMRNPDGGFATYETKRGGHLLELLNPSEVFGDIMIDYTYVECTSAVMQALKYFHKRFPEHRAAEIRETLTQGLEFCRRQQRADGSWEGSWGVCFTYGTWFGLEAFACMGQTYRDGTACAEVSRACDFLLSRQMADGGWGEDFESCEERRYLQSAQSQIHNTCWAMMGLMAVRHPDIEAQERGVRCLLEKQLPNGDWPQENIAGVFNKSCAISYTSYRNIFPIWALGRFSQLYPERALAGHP
The experiment in a line: Inhibition of oxidosqualene cyclase.
As to `CN(C/C=C/COc1ccc(C(=O)c2ccc(Br)cc2)cn1)C1CC1`, it took 19.1 nM to reach half-maximal inhibition (IC50).

Regarding `CN(CCCCCCOc1ccc(C(=O)c2ccc(Br)cc2)cc1)CC1CC1`, the midpoint of inhibition, the IC50, lay at 31.6 nM.

In the case of `C=CCN(C)CCCCCCOc1ccc2c(c1)S(=O)(=O)C=C2c1ccc(Br)cc1`, the IC50 – broadly, the concentration needed to halve the response being measured – is 7.76 nM.

With `C=CCN(C)CCCCCCOc1ccc2c(c1)c(C)nn2C`, half-maximal inhibition (IC50) was put at 240 nM.
